Assay results: BindingDB's records for doi:10.1016/S0960-894X(01)80767-8 (1993)
pKi: −log10 of the molar value.

Biological target: L-type calcium channel (Cavia porcellus)
Assay: Displacement of [3H]diltiazem from L-type calcium channel of guinea pig striated muscle

| pKi | SMILES |
| --- | --- |
| 6.27 | COc1ccc([C@@H]2Sc3ccccc3N(CCN(C)C)C(=O)[C@@H]2C)cc1 [(2R,3S)-5-(2-Dimethylamino-ethyl)-2-(4-methoxy-phenyl)-3-methyl-2,3-dihydro-5H-benzo[b][1,4]thiazepin-4-one] |
| 7.38 | COc1ccc([C@@H]2Sc3cc(OC)ccc3N(CCN(C)C)C(=O)[C@@H]2OC(C)=O)cc1 [Acetic acid (2S,3S)-5-(2-dimethylamino-ethyl)-8-methoxy-2-(4-methoxy-phenyl)-4-oxo-2,3,4,5-tetrahydro-benzo[b][1,4]thiazepin-3-yl ester] |
| 7.07 | COc1ccc([C@@H]2Sc3cc(OC)ccc3N(CCN(C)C)C(=O)[C@@H]2C)cc1 [(2R,3S)-5-(2-Dimethylamino-ethyl)-8-methoxy-2-(4-methoxy-phenyl)-3-methyl-2,3-dihydro-5H-benzo[b][1,4]thiazepin-4-one] |
